Counter-ions that a name gives are not always drawn.
What was measured:
[1] = Stability test under oxidation condition (0.3% hydrogen peroxide solution, HPLC total related substances); type: physicochemical; conditions: room temperature, 24 hours, HPLC area ratio of total related substances
Description: (§1) This experiment is designed to confirm the storage stability of the various acid salts of tolterodine.
(§2) For a pharmaceutical drug to be processed into a certain formulation it is essential to be provided with sufficient storage stability. For example, for tablets or capsules, it is necessary for them to have stability in atmospheric condition, for injections, stability in moisture (water), and for patches, both stability in atmospheric condition and in moisture (water).

[2] = Stability test under acid condition (HPLC total impurities); type: physicochemical; conditions: acid condition (details not described)
Description: as §1, §2

[3] = Alkali stability test (1M sodium hydroxide solution, HPLC total related substances); type: physicochemical; conditions: room temperature, 24 hours, HPLC area ratio of total related substances
Description: as §1, §2

[4] = In vitro penetration test, Frantz cell mounted with hairless mouse skin; conditions: 10 mg/mL in propylene glycol, 32° C.
Protocol: I mL of tolterodine salt was added onto a Frantz cell, which was mounted with a hairless mouse skin. Then, the amount of tolterodine penetrated through the skin at 32° C. was quantitated and its cumulative amount was measured.

Compound	Total impurities, oxidation condition [1]	Total impurities, acid condition [2]	Total impurities, alkali condition [3]	Cumulative amount of tolterodine penetrated through the skin ([4]; 0 hr)	Cumulative amount of tolterodine penetrated through the skin ([4]; 3 hr)	Cumulative amount of tolterodine penetrated through the skin ([4]; 6 hr)	Cumulative amount of tolterodine penetrated through the skin ([4]; 9 hr)	Cumulative amount of tolterodine penetrated through the skin ([4]; 12 hr)
Tolterodine Glucolate	0.44 % area	0.11 % area	0.23 % area	–	–	–	–	–
Cc1ccc(O)c([C@H](CCN(C(C)C)C(C)C)c2ccccc2)c1.O=C1CC[C@@H](C(=O)O)N1 [tolterodine L-pyroglutamate, Tolterodine L-Pyroglutamate]	0.56 % area	0.03 % area	0.08 % area	–	–	–	–	–
Cc1ccc(O)c([C@H](CCN(C(C)C)C(C)C)c2ccccc2)c1 [tolterodine free base, 2-[(1R)-3-(diisopropylamino)-1-phenylpropyl)-4-methylphenol, reference compound]	4.74 % area	0.59 % area	0.83 % area	–	–	–	–	–
Cc1ccc(O)c([C@H](CCN(C(C)C)C(C)C)c2ccccc2)c1 [tolterodine tartrate, reference compound]	0.98 % area	0.20 % area	0.29 % area	–	–	–	–	–
Cc1ccc(O)c([C@H](CCN(C(C)C)C(C)C)c2ccccc2)c1.Cc1ccc(O)c([C@H](CCN(C(C)C)C(C)C)c2ccccc2)c1.O=C(O)CCCCC(=O)O [tolterodine hemiadipate, Tolterodine Hemiadipate]	0.39 % area	0.14 % area	0.10 % area	–	–	–	–	–
Cc1ccc(O)c([C@H](CCN(C(C)C)C(C)C)c2ccccc2)c1.O=C(O)c1cc(O)ccc1O [tolterodine gentisate, Tolterodine Gentisate]	0.23 % area	0.03 % area	0.04 % area	–	–	–	–	–
Cc1ccc(O)c([C@H](CCN(C(C)C)C(C)C)c2ccccc2)c1.Cc1ccc(O)c([C@H](CCN(C(C)C)C(C)C)c2ccccc2)c1.O=S(=O)(O)c1cccc2c(S(=O)(=O)O)cccc12 [tolterodine hemi naphthalene-1,5-disulfonate]	0.40 % area	0.07 % area	0.11 % area	–	–	–	–	–
CC1=C(/C=C/C(C)=C/C=C/C(C)=C/C(=O)O)C(C)(C)CCC1.Cc1ccc(O)c([C@H](CCN(C(C)C)C(C)C)c2ccccc2)c1 [tolterodine retinoate, Tolterodine Retinoate]	0.08 % area	0.15 % area	0.19 % area	0.0 µg	0.5 µg	1.7 µg	2.5 µg	4.1 µg
Cc1ccc(O)c([C@H](CCN(C(C)C)C(C)C)c2ccccc2)c1.O=C(O)c1ccccc1 [tolterodine benzoate, Tolterodine Benzoate]	0.39 % area	0.02 % area	0.10 % area	–	–	–	–	–
Tolterodine Toluene Sulfonate [tolterodine p-toluenesulfonate]	0.09 % area	0.11 % area	0.06 % area	0.0 µg	1.1 µg	8.0 µg	19.9 µg	36.6 µg
Tolterodine Benzene Sulfonate [tolterodine benzenesulfonate]	0.51 % area	0.02 % area	0.08 % area	0.0 µg	0.0 µg	0.4 µg	0.8 µg	1.7 µg
Cc1ccc(O)c([C@H](CCN(C(C)C)C(C)C)c2ccccc2)c1.O=C(O)CNC(=O)c1ccccc1 [tolterodine hippurate, Tolterodine Hippurate]	0.41 % area	0.11 % area	0.14 % area	–	–	–	–	–
Cc1ccc(O)c(C(CCN(C(C)C)C(C)C)c2ccccc2)c1.O=C(O)c1ccc2ccccc2c1O (stereo not drawn) [tolterodine 1-hydroxy-2-naphtate, tolterodine 1-hydroxy-2-naphthate]	0.33 % area	0.10 % area	0.15 % area	–	–	–	–	–

From patent publication US8367726B2, “Acid salt of tolterodine having effective stability for transdermal drug delivery system” (SK Chemicals Co., Ltd., priority 2008, dated 2013)
